# Patent publication US20080009418A1, “Selective Inhibitors” (Alchemia LTD., priority 2004, published 2008)
# Key:
# [1] = target: T1, Human neuropeptide Y (NPY-Y1) (Homo sapiens, UniProt P25929); test: Radioligand binding, human neuropeptide Y NPY-Y1 membranes, FlashPlate, [125I]-PYY; conditions: compound at 10 μM, [125I]-PYY
# T1 construct: purchased Perkin Elmer Biosignal
# T1 sequence (P25929 1-384): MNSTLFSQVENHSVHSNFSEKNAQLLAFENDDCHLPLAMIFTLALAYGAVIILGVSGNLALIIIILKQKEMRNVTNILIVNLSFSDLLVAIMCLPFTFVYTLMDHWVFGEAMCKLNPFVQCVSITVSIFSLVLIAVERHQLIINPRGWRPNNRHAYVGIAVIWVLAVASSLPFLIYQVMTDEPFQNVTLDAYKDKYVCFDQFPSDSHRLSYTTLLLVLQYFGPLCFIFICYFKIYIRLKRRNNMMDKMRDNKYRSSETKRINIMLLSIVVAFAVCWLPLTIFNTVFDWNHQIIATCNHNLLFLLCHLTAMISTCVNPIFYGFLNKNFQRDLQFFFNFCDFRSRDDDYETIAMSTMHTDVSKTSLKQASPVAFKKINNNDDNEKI
# Procedure, shortened: (§1)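 Cloned human receptor membranes were coated onto FlashPlate wells and incubated with radioligand and compound (added from a 0.5 mM DMSO daughter plate) for 1 hour at room temperature in the dark. Scintillation counting gave percent inhibition, with DMSO defining total and reference ligand defining non-specific binding.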
# [2] = target: T2, Human melanin-concentrating hormone (MCH1) (Homo sapiens, UniProt Q99705); test: Radioligand binding, human melanin-concentrating hormone MCH1 membranes, FlashPlate, [125I]-S36057; conditions: compound at 10 μM
# T2 construct: purchased Perkin Elmer Biosignal
# Procedure, shortened: as §1
# Human neurokinin (NK1) = target: T3, Human neurokinin (NK1) (Homo sapiens, UniProt P25103); test: Radioligand binding, human neurokinin NK1 membranes, filtration, [125I]-Substance P; conditions: compound at 10 μM, [125I]-Substance P
# T3 construct: purchased Perkin Elmer Biosignal
# Procedure, shortened: (§2)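 Filtration binding on cloned human receptor membranes (1 Unit/well), [125I]-Substance P for NK1 and [3H]-Diprenorphine for KOP, 1 h at room temperature. Filters PEI-presoaked, washed with cold 50 mM Tris-HCl pH 7.4, counted by scintillation; percent inhibition calculated, reference ligand defining non-specific binding.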
# Human μ-opioid (MOP) = target: T4, Human μ-opioid (MOP) (Homo sapiens, UniProt P35372); test: Radioligand binding, human μ-opioid (MOP) membranes, FlashPlate, [3H]-Naloxone; conditions: compound at 10 μM, [3H]-Naloxone
# T4 construct: purchased Perkin Elmer Biosignal
# Procedure, shortened: as §1
# Human opioid (ORL1) = target: T5, Human opioid (ORL1) (Homo sapiens, UniProt P41146); test: Radioligand binding, human opioid ORL1 membranes, FlashPlate, [125I]-Nociceptin; conditions: compound at 10 μM, [125I]-Nociceptin
# T5 construct: purchased Perkin Elmer Biosignal
# Procedure, shortened: as §1
# Mouse urotensin (mUR2) = target: T6, Mouse urotensin (mUR2) (Mus musculus, UniProt Q8VIH9); test: Radioligand binding, mouse urotensin mUR2 membranes, FlashPlate, [125I]-Urotensin II; conditions: compound at 10 μM, [125I]-Urotensin II
# T6 construct: purchased Perkin Elmer Biosignal
# T6 sequence (Q8VIH9 1-385): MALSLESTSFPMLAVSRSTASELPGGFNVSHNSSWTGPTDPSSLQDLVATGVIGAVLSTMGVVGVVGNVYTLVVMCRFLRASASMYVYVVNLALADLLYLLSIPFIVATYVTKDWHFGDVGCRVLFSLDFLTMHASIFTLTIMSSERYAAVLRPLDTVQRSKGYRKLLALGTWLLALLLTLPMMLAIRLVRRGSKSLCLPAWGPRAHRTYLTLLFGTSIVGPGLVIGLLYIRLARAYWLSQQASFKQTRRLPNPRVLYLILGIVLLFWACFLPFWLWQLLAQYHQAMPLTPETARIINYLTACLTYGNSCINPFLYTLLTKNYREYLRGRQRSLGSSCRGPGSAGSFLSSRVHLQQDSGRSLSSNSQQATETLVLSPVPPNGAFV
# Procedure, shortened: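 Cloned mouse urotensin (mUR2) receptor membranes from Perkin Elmer Biosignal were immobilized in FlashPlate microplates using a proprietary coating. Each well got 19.5 μl buffer, then 0.5 μl of DMSO, reference ligand, or compound. Adding 5 μl of [125I]-Urotensin II, diluted to 5× final concentration in binding buffer, started binding. Plates were sealed with TopSeal-A and incubated 1 hour at room temperature in the dark. Wells were counted for 30 seconds each on a TopCount after a 60-second delay, and percentage inhibition was calculated.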
# Human Melanocortin (MC4) = target: T7, Human Melanocortin (MC4) (Homo sapiens, UniProt P32245); test: Radioligand binding, human melanocortin MC4 membranes, FlashPlate, [125I]-NDP-αMSH; conditions: compound at 10 μM, [125I]-NDP-αMSH
# T7 construct: purchased Perkin Elmer Biosignal
# Procedure, shortened: as §1
# Human δ-opioid (DOP) = target: T8, Human δ-opioid (DOP) (Homo sapiens, UniProt P41143); test: Radioligand binding, human δ-opioid (DOP) membranes, FlashPlate, [3H]-Bremazocine; conditions: compound at 10 μM, [3H]-Bremazocine
# T8 construct: purchased Perkin Elmer Biosignal
# Procedure, shortened: as §1
# Human melanocortin (MC5) = target: T9, Human melanocortin (MC5) (Homo sapiens, UniProt P33032); test: Radioligand binding, human melanocortin MC5 membranes, FlashPlate, [125I]-NDP-αMSH; conditions: compound at 10 μM, [125I]-NDP-αMSH
# T9 construct: purchased Perkin Elmer Biosignal
# Procedure, shortened: as §1
# Human κ-Opioid (KOP) = target: T10, Human κ-Opioid (KOP) (Homo sapiens, UniProt P41145); test: Radioligand binding, human κ-opioid (KOP) membranes, filtration, [3H]-Diprenorphine; conditions: compound at 10 μM, [3H]-Diprenorphine
# T10 construct: purchased Perkin Elmer Biosignal
# Procedure, shortened: as §2
# Human Melanocortin (MC3) = target: T11, Human Melanocortin (MC3) (Homo sapiens, UniProt P41968); test: Radioligand binding, human melanocortin MC3 membranes, FlashPlate, [125I]-NDP-αMSH; conditions: compound at 10 μM, [125I]-NDP-αMSH
# T11 construct: purchased Perkin Elmer Biosignal
# Procedure, shortened: as §1
# T7 sequence (P32245 whole entry): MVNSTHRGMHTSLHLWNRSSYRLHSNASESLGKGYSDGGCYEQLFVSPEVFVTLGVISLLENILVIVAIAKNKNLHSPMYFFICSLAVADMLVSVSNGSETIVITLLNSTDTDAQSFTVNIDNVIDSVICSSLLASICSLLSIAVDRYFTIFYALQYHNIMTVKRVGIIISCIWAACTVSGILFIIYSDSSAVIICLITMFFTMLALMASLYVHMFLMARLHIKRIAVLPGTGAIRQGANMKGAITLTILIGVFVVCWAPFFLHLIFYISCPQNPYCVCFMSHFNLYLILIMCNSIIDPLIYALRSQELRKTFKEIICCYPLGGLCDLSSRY
# T11 sequence (P41968 whole entry): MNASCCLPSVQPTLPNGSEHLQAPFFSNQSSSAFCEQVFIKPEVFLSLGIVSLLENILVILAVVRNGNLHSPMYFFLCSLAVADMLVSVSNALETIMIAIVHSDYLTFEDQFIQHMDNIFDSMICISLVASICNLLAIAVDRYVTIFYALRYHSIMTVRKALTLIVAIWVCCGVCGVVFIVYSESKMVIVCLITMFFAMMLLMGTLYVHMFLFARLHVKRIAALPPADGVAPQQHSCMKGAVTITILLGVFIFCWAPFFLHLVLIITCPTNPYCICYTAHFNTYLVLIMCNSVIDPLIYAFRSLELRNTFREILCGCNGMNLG
# T10 sequence (P41145 whole entry): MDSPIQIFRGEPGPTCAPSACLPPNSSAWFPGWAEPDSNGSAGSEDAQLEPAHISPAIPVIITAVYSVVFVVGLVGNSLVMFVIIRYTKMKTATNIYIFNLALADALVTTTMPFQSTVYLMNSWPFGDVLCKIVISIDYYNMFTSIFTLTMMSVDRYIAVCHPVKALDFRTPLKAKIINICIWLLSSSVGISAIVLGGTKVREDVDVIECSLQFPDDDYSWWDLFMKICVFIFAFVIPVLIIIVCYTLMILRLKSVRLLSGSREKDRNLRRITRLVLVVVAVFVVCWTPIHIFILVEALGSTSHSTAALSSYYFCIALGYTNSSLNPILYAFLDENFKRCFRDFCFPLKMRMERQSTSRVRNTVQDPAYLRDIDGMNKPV
# T5 sequence (P41146 whole entry): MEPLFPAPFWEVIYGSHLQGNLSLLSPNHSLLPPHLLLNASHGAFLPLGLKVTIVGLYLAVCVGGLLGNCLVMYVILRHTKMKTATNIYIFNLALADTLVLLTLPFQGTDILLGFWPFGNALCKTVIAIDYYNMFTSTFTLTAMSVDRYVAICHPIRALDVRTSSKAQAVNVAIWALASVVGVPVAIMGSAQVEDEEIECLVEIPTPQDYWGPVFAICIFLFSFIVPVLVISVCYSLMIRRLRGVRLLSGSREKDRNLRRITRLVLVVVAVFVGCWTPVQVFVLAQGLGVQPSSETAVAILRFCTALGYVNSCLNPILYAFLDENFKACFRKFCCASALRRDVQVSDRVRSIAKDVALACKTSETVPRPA
# T8 sequence (P41143 whole entry): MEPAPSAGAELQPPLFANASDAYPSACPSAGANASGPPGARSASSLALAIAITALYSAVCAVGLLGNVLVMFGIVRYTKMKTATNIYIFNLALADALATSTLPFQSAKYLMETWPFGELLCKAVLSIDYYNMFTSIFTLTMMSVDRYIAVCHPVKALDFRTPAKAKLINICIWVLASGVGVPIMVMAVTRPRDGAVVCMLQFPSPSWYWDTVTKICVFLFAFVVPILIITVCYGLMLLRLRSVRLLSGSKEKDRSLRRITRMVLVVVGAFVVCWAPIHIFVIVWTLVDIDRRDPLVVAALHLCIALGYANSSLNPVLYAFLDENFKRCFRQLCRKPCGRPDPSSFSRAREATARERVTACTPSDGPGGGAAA
# T9 sequence (P33032 whole entry): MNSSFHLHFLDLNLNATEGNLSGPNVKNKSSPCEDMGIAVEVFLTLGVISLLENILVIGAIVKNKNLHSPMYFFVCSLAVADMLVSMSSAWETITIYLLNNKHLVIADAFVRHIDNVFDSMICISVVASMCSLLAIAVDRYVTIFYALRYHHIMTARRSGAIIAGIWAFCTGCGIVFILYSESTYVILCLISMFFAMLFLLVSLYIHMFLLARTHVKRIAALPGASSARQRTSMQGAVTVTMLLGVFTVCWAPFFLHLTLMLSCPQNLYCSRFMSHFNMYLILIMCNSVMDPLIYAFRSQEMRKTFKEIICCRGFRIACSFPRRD
# T3 sequence (P25103 whole entry): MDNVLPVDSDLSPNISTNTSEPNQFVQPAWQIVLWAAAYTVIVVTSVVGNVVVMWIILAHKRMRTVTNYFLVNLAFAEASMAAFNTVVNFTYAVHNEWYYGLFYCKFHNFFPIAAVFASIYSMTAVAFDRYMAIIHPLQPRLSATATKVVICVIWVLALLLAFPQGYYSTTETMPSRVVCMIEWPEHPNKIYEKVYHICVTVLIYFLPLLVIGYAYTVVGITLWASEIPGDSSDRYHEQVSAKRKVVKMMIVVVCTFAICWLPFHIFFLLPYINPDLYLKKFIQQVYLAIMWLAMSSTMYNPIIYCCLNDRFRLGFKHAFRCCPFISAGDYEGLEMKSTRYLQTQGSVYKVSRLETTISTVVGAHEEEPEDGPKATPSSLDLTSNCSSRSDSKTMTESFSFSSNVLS
# T2 sequence (Q99705 whole entry): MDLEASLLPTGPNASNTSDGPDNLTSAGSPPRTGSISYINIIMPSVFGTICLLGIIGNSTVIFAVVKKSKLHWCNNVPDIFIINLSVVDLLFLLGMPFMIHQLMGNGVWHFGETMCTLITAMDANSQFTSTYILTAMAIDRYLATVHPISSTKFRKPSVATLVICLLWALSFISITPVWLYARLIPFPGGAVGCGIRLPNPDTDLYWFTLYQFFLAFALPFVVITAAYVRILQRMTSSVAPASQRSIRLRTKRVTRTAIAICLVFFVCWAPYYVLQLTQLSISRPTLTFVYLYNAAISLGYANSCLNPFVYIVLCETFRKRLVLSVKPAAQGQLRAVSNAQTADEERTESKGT
# T4 sequence (P35372 whole entry): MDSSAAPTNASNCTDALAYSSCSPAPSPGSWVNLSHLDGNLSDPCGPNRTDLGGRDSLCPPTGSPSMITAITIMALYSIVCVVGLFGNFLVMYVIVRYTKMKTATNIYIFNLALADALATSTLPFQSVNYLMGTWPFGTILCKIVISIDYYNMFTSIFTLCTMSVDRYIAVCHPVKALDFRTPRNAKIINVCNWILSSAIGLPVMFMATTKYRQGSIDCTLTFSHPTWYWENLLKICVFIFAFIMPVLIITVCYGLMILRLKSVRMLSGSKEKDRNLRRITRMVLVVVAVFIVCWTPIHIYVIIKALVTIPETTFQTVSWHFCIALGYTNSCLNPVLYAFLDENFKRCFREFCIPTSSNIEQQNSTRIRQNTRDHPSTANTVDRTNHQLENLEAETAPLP
smiles,measurement,setting,value
"NCCCC(=O)NC1C(OCc2ccc3ccccc3c2)OC(COCc2ccc(Cl)cc2)C(O)C1OCc1ccccc1 (single isomer, unassigned) [compound 469]",A9: inhibition of radioligand binding,[1]; human NPY-Y1 membranes,− (“−” indicates less than 50% inhibition at 10 μM)
same,A6: inhibition of radioligand binding,"[2]; [125I]-S36057, human MCH1 membranes",− (“−” indicates less than 50% inhibition at 10 μM)
same,A8: inhibition of radioligand binding,Human neurokinin (NK1); human NK1 membranes,+ (“+” indicates greater than 50% inhibition at 10 μM)
same,A7: inhibition of radioligand binding,Human μ-opioid (MOP); human MOP membranes,− (“−” indicates less than 50% inhibition at 10 μM)
same,A10: inhibition of radioligand binding,"Human opioid (ORL1); human ORL1 membranes, 10 µM",− (“−” indicates less than 50% inhibition at 10 μM)
same,A11: inhibition of radioligand binding,Mouse urotensin (mUR2); mouse mUR2 membranes,− (“−” indicates less than 50% inhibition at 10 μM)
same,A4: inhibition of radioligand binding,"Human Melanocortin (MC4); human MC4 membranes, 10 µM",+ (“+” indicates greater than 50% inhibition at 10 μM)
same,A1: inhibition of radioligand binding,Human δ-opioid (DOP); human DOP membranes,− (“−” indicates less than 50% inhibition at 10 μM)
same,A5: inhibition of radioligand binding,Human melanocortin (MC5); human MC5 membranes,+ (“+” indicates greater than 50% inhibition at 10 μM)
same,A2: inhibition of radioligand binding,Human κ-Opioid (KOP); human KOP membranes,− (“−” indicates less than 50% inhibition at 10 μM)
same,A3: inhibition of radioligand binding,"Human Melanocortin (MC3); human MC3 membranes, 10 µM",− (“−” indicates less than 50% inhibition at 10 μM)
N=C(N)NCC(=O)N[C@H]1C(OCc2ccc(Cl)cc2)O[C@H](COCc2ccc3ccccc3c2)[C@@H](O)[C@@H]1OCc1ccc2ccccc2c1 (stereo partly shown) [compound 512],"A9: inhibition of radioligand binding, human neuropeptide Y (NPY-Y1)",[1]; 10 µM,− (“−” indicates less than 50% inhibition at 10 μM)
same,"A6: inhibition of radioligand binding, human melanin-concentrating hormone (MCH1)",[2]; [125I]-S36057,+ (“+” indicates greater than 50% inhibition at 10 μM)
same,"A8: inhibition of radioligand binding, human neurokinin (NK1)",Human neurokinin (NK1),+ (“+” indicates greater than 50% inhibition at 10 μM)
same,"A7: inhibition of radioligand binding, human μ-opioid (MOP)",Human μ-opioid (MOP),+ (“+” indicates greater than 50% inhibition at 10 μM)
same,"A10: inhibition of radioligand binding, human opioid (ORL1)",Human opioid (ORL1),+ (“+” indicates greater than 50% inhibition at 10 μM)
same,"A11: inhibition of radioligand binding, mouse urotensin (mUR2)",Mouse urotensin (mUR2),− (“−” indicates less than 50% inhibition at 10 μM)
same,"A4: inhibition of radioligand binding, human melanocortin (MC4)",Human Melanocortin (MC4),+ (“+” indicates greater than 50% inhibition at 10 μM)
same,"A1: inhibition of radioligand binding, human δ-opioid (DOP)",Human δ-opioid (DOP),− (“−” indicates less than 50% inhibition at 10 μM)
same,"A5: inhibition of radioligand binding, human melanocortin (MC5)",Human melanocortin (MC5),+ (“+” indicates greater than 50% inhibition at 10 μM)
same,"A2: inhibition of radioligand binding, human κ-opioid (KOP)",Human κ-Opioid (KOP); 10 µM,− (“−” indicates less than 50% inhibition at 10 μM)
same,"A3: inhibition of radioligand binding, human melanocortin (MC3)",Human Melanocortin (MC3),+ (“+” indicates greater than 50% inhibition at 10 μM)
